Laboratory results published in the supplement of paper PMC10307832.

Key:
Test in all cases: relative viability (nuclei count vs DMSO), 5 days (fraction); higher = more cells survive
[1] = compound: CC1=NN=C(O1)C2=NN=C(C=C2)N3CCC(CC3)OC4=C(C=CC(=C4)F)Cl + Nc1nc2[nH]cc(CCc3ccc(C(=O)N[C@@H](CCC(=O)O)C(=O)O)cc3)c2c(=O)[nH]1 [Pemetrexed] (partner 0.2 µM)
Procedure, shortened: (§1)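 Values are medians from duplicate plates. Each reflects relative viability, defined as the nuclei count of treated wells over that of vehicle wells. Lung cancer cell lines in 1536-well plates were pin-tool dosed one day after seeding with one drug alone or with a fixed anchor-drug dose plus five library-drug doses (not always all listed) in √10 steps, then fixed, stained and imaged at 4× after 5 days.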

[2] = compound: CC(C)C[C@@H](C(=O)N[C@H](C(=O)OC1CCCC1)c1ccccc1)[C@H](O)C(=O)NO [Tosedostat] + COc1cccc2cc(-c3nc([C@H]4CC[C@H](C(=O)O)CC4)n4ncnc(N)c34)[nH]c12 [OSI-027] (partner 0.5 µM)
Procedure, shortened: as §1

[3] = compound: CC1=NN=C(O1)C2=NN=C(C=C2)N3CCC(CC3)OC4=C(C=CC(=C4)F)Cl
Procedure, shortened: (§2)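 Viability was read as treated-well nuclei divided by vehicle-well nuclei, using the median across plates. Lung cancer cell lines in 1536-well plates were kept overnight at 37 °C, pinned with five √10-spaced library-drug doses, and after 5 days were Hoechst-stained, imaged at 4× and counted in MetaXpress. Plates passed only with control CV below 25% and at least one doubling.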

[4] = compound: CC(C)C[C@@H](C(=O)N[C@H](C(=O)OC1CCCC1)c1ccccc1)[C@H](O)C(=O)NO [Tosedostat]
Procedure, shortened: as §2

PC-3 [JPC-3]
relative viability ([1]; first compound 0.253 µM): 1.05
relative viability ([1]; first compound 0.8 µM): 0.816
relative viability ([1]; first compound 2.53 µM): 1.06
relative viability ([1]; first compound 8 µM): 0.791
relative viability ([2]; first compound 0.02 µM): 0.693
relative viability ([2]; first compound 0.06325 µM): 0.828
relative viability ([2]; first compound 0.2 µM): 0.73
relative viability ([2]; first compound 0.6325 µM): 0.614
relative viability ([2]; first compound 2 µM): 0.609
relative viability ([3]; 0.253 µM): 0.85
relative viability ([3]; 0.8 µM): 0.805
relative viability ([3]; 2.53 µM): 0.896
relative viability ([3]; 8 µM): 0.926
relative viability ([4]; 0.02 µM): 1.08
relative viability ([4]; 0.06325 µM): 1.13
relative viability ([4]; 0.2 µM): 1.04
relative viability ([4]; 0.6325 µM): 0.933
relative viability ([4]; 2 µM): 0.641

PC-14
relative viability ([1]; first compound 0.253 µM): 0.139
relative viability ([1]; first compound 0.8 µM): 0.117
relative viability ([1]; first compound 2.53 µM): 0.153
relative viability ([1]; first compound 8 µM): 0.121
relative viability ([2]; first compound 0.02 µM): 0.959
relative viability ([2]; first compound 0.06325 µM): 0.818
relative viability ([2]; first compound 0.2 µM): 0.637
relative viability ([2]; first compound 0.6325 µM): 0.5
relative viability ([2]; first compound 2 µM): 0.449
relative viability ([3]; 0.253 µM): 0.896
relative viability ([3]; 0.8 µM): 0.778
relative viability ([3]; 2.53 µM): 0.817
relative viability ([3]; 8 µM): 0.846
relative viability ([4]; 0.02 µM): 1.14
relative viability ([4]; 0.06325 µM): 0.951
relative viability ([4]; 0.2 µM): 0.962
relative viability ([4]; 0.6325 µM): 0.928
relative viability ([4]; 2 µM): 0.806

RERF-LC-KJ
relative viability ([1]; first compound 0.253 µM): 0.446
relative viability ([1]; first compound 0.8 µM): 0.43
relative viability ([1]; first compound 2.53 µM): 0.438
relative viability ([1]; first compound 8 µM): 0.455
relative viability ([2]; first compound 0.02 µM): 0.588
relative viability ([2]; first compound 0.06325 µM): 0.586
relative viability ([2]; first compound 0.2 µM): 0.486
relative viability ([2]; first compound 0.6325 µM): 0.452
relative viability ([2]; first compound 2 µM): 0.418
relative viability ([3]; 0.253 µM): 0.653
relative viability ([3]; 0.8 µM): 0.628
relative viability ([3]; 2.53 µM): 0.652
relative viability ([3]; 8 µM): 0.647
relative viability ([4]; 0.02 µM): 0.953
relative viability ([4]; 0.06325 µM): 1.03
relative viability ([4]; 0.2 µM): 0.944
relative viability ([4]; 0.6325 µM): 0.888
relative viability ([4]; 2 µM): 0.876
